Calls of active or inactive are those of the source.
Legend:
NADPH oxidase 1 = biological target: T1, NADPH oxidase 1 (Homo sapiens, UniProt Q9Y5S8); type: functional, cell-based;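 also: Cell-based assay with luminescence read-out, IC50 derived from inhibitor dose-response curves; intracellular ROS from endogenous NOX1 in intact HT29 colon cancer cells; potency of inhibitors that lower the ROS luminescence signal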
T1 sequence (Q9Y5S8 whole entry): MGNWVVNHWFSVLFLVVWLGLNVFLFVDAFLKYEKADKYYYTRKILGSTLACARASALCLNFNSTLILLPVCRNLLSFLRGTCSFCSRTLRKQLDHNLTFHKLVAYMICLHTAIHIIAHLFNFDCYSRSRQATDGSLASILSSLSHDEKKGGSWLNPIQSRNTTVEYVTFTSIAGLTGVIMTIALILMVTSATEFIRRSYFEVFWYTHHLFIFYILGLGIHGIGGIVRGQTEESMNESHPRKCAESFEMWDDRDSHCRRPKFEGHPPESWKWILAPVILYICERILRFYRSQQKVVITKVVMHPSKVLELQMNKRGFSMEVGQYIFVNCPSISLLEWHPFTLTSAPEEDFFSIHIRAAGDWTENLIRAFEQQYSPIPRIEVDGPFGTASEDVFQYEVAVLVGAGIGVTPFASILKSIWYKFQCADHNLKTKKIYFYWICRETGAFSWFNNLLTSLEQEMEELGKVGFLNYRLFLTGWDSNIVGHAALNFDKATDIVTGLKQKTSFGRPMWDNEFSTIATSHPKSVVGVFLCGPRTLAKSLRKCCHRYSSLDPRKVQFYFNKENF

[1] = biological target: Sphingosine 1-phosphate receptor 2 (Homo sapiens, UniProt O95136); assay: Dose Response Cell Based Assay for Antagonists of the S1P2 Receptor. [Related pubchem assays: 856, 736 ]; type: functional
Sequence of Sphingosine 1-phosphate receptor 2 (O95136 whole entry): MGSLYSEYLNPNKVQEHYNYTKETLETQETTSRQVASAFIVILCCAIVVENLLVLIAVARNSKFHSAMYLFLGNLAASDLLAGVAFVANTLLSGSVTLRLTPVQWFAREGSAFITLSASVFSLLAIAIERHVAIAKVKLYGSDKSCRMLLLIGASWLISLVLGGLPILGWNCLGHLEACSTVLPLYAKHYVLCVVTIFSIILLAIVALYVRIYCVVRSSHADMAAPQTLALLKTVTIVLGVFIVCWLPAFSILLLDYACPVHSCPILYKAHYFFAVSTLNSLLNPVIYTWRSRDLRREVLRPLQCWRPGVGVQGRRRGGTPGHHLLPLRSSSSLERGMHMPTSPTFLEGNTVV

[2] = Intein inhibitors as potential Tuberculosis drugs, a cytotoxicity screen. [Related pubchem assays (depositor defined):AID2221, AID2223, AID434968, AID435010, AID449749, AID449750, AID489010]; type: functional
[3] = biological target: T2, Heat shock factor protein 1 (Mus musculus, UniProt P38532); assay: inhibition of MG132-induced HSE-luciferase signal, confirmation, cell-based, NIH3T3, luminescence, dose retest (AID 2382); type: functional;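 also: NIH3T3 fibroblasts with HSF1-driven luciferase reporter stressed by proteasome inhibitor MG132; luminescence from HSF1-driven luciferase expression after 8 hours of MG132 stress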
T2 sequence (P38532 whole entry): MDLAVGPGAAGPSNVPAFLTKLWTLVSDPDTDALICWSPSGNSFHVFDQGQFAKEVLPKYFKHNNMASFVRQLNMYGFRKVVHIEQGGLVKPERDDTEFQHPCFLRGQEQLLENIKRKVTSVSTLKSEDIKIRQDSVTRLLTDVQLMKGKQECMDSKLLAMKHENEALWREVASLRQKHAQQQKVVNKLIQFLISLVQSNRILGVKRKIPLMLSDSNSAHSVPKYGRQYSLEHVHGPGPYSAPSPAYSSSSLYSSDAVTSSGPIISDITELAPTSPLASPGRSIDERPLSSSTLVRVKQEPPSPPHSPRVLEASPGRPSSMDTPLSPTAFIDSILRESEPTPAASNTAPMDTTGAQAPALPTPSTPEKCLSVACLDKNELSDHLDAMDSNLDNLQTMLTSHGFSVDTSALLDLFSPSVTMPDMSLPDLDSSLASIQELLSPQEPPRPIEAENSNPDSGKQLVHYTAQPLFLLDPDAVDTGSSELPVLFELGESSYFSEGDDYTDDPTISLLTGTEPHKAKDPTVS

[4] = Luminescent dose response cell-based high throughput screening assay for inhibitors of the Janus kinase 2 mutant JAK2V617F. [Related pubchem assays: 1446 (Primary screen.), 1521 (Confirmation assay.), 1486 (Counter screen.)]; type: functional
HeLa = assay: Cytotoxicity counterscreen assay for transcriptional activators of heat shock protein 70 (Hsp70). [Related pubchem assays: 1203, 1252 ]; type: functional; settings: Homo sapiens;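 also: cells exposed to compound for 16 hours before readout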
[5] = Shn3 3'UTR reporter inhibitors, dose response, cell-based, Clone20 osteoblasts, firefly luciferase, cherry-picked (AID 624132); type: functional;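 also: firefly luciferase luminescence from reporter carrying the Shn3 3'UTR in osteoblasts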
[6] = miR-122 activators in hepatoma reporter cells, dose response, cell-based, Huh7 psiCHECK-miR122, Renilla luciferase, cherry-picked (AID 651956); type: functional;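 also: huh7 hepatoma cells stably carrying a psiCHECK-2 miR-122 sensor plasmid; renilla luciferase signal reporting endogenous miR-122 activity after 48 h compound exposure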
CHO = assay: cytotoxicity in TLR9-MyD88 CHO cells, dose response, cytotoxicity control for TLR9-MyD88 binding inhibitor project, cell-based, luminescence (AID 588339); type: functional, hamster; settings: Cricetulus griseus;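 also: CHO cells stably coexpressing TLR9 and MyD88 fusions from primary screen; compound exposure lasted 48 hours before viability readout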
[7] = HEK293T cytotoxicity, dose response, cytotoxicity control for miR-122 modulator project, cell-based, inhibitor set, cherry-pick, set 2 (AID 720697); type: functional
[8] = HepG2 cell cytotoxicity, dose response, cytotoxicity control for Shn3 inhibitor project, CellTiter-Glo, cherry-picked (AID 624134); type: functional, cell-based
Protein RecA = biological target: T3, Protein RecA (Mycobacterium tuberculosis, UniProt P9WHJ3); assay: Fluorescence Cell-Free Homogeneous Dose Retest to Identify Inhibitors of RecA-Intein Splicing Activity. [Related pubchem assays (depositor defined):AID2097, AID2223, AID489010, AID492950]; type: functional
T3 sequence (P9WHJ3 whole entry): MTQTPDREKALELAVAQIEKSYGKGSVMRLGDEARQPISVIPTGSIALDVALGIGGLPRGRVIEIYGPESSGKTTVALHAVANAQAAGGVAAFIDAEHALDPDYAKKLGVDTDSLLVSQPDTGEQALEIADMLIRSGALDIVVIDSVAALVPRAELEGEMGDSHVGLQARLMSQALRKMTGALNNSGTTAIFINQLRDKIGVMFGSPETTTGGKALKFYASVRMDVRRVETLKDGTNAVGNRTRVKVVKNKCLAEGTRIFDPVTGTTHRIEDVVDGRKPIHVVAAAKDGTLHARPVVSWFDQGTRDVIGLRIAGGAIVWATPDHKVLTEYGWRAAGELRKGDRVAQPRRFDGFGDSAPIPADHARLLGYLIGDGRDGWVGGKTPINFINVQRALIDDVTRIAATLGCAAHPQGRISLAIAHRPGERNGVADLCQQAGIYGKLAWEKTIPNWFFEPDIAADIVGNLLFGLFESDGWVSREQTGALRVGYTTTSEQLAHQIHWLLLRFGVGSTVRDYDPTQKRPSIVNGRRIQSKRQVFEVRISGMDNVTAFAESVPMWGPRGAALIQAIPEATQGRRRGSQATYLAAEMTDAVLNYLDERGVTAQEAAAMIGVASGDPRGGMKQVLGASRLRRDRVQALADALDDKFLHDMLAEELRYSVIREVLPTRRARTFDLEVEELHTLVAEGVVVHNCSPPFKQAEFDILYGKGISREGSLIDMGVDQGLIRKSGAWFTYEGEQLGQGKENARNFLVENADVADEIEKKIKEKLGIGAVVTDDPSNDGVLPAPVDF

[9] = inhibitors of intracellular T. cruzi replication, confirmation, NIH3T3 host cells, beta-gal luminescence (AID 2044); type: functional, cell-based;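 also: intracellular parasites grown in NIH/3T3 mouse fibroblasts as host cells; luminescent beta-galactosidase reporter signal from transgenic T. cruzi replicating inside host cells; inhibitors lower the luminescence signal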
[10] = cytotoxicity toward NIH3T3 fibroblasts, dose response, counter-screen, cell-based, ATP luminescence, mouse fibroblasts (AID 2010); type: functional;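 also: cells exposed to compound for about 90 hours before reading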
[11] = control 3'UTR Renilla luciferase suppression, dose response, counter-screen for Shn3 inhibitor project, cell-based, Clone20-Shn3RL, cherry-picked (AID 624133); type: functional
[12] = biological target: T4, Replicative DNA helicase DnaB (Mycobacterium tuberculosis, UniProt P9WMR3); assay: DnaB intein splicing inhibitors, dose response, biochemical, cell-free fluorescence (AID 449749); type: functional
T4 sequence (P9WMR3 whole entry): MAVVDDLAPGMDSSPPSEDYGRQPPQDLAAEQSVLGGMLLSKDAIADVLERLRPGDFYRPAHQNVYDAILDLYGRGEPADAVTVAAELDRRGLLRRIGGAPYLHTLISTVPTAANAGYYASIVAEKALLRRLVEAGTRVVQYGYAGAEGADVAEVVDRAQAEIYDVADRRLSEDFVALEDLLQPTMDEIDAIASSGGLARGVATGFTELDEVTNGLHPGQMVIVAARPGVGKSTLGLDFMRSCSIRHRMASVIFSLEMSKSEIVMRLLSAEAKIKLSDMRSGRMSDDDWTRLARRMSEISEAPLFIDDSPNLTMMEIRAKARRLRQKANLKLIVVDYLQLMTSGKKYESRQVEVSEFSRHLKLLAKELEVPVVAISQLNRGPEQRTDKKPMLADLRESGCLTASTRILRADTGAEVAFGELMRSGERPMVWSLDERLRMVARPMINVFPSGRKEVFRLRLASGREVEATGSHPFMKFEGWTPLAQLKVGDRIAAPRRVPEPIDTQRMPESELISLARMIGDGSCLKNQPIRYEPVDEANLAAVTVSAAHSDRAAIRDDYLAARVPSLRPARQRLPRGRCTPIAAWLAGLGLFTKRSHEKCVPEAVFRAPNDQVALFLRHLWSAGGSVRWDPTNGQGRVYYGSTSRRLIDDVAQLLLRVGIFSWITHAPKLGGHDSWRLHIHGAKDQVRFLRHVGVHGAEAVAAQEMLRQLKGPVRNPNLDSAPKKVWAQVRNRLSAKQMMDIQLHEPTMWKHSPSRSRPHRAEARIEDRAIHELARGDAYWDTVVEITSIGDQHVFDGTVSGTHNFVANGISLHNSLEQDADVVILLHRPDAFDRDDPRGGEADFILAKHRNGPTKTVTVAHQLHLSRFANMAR

INS1 = assay: beta cell apoptosis inhibitors, cytokine rescue, dose response, luminescence, retest (AID 449756); type: functional, cell-based; settings: Rattus norvegicus;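 also: cell death triggered by IL-1 beta plus TNF-alpha plus IFN-gamma mixture; protective hits raise ATP signal compared with cytokine alone wells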
[13] = HEK293T cytotoxicity, dose response, cytotoxicity control for miR-122 modulator project, cell-based, activator set, cherry-pick (AID 720690); type: functional;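 also: HEK293T human cells scored for general mammalian cytotoxicity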
[14] = C. albicans growth with fluconazole, confirmation, fluorescence, retest (AID 2467); type: functional, cell-based
Beta Lactamase = Beta Lactamase (Pseudomonas aeruginosa, UniProt Q932Y6); assay: beta-lactamase reporter inhibitor potency, dose response, artefact control for TLR9-MyD88 binding inhibitor project, BLA reporter cells, FRET fluorescence (AID 588341); type: cell-based;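 also: cell based assay in CHO-K1 cells stably expressing beta-lactamase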
Sequence of Beta Lactamase (Q932Y6 whole entry): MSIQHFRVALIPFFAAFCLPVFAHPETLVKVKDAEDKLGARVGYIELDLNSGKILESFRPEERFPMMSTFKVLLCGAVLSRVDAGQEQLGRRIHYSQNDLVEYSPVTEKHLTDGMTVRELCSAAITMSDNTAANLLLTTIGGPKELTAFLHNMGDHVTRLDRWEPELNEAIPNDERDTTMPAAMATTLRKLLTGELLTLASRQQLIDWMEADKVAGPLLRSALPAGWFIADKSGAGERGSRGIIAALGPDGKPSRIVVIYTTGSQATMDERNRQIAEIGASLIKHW

[15] = NIH-3T3 fibroblast cytotoxicity, dose response, cytotoxicity control, cell-based, fluorescence, Alamar Blue, secondary assay (AID 2327); type: functional;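 also: NIH-3T3 mouse fibroblasts cultured with fluconazole at 8 µg/mL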
[16] = Counterscreen for IDE inhibitors: Luminescence-based cell-based high throughput dose response assay to identify compounds that are cytotoxic to HEK cells. [Related pubchem assays: 434962 (Primary screen (IDE inhibitors in singlicate)), 449730 (Counterscreen (Cytotoxicity in triplicate)), 435028 (Confirmation (IDE inhibitors in triplicate)) …; type: functional; settings: HEK293
Insulin-degrading enzyme = biological target: T5, Insulin-degrading enzyme (Homo sapiens, UniProt P14735); assay: Dose Response: Fluorescence polarization-based cell-based high throughput dose response assay for inhibitors of insulin-degrading enzyme (IDE). [Related pubchem assays: 434962 (Primary screen (IDE inhibitors in singlicate)), 449730 (Counterscreen (Cytotoxicity in triplicate)), 435028 (Confirmation (IDE inhibitors in triplicate)), 434984 (Summary …; type: functional
T5 sequence (P14735 whole entry): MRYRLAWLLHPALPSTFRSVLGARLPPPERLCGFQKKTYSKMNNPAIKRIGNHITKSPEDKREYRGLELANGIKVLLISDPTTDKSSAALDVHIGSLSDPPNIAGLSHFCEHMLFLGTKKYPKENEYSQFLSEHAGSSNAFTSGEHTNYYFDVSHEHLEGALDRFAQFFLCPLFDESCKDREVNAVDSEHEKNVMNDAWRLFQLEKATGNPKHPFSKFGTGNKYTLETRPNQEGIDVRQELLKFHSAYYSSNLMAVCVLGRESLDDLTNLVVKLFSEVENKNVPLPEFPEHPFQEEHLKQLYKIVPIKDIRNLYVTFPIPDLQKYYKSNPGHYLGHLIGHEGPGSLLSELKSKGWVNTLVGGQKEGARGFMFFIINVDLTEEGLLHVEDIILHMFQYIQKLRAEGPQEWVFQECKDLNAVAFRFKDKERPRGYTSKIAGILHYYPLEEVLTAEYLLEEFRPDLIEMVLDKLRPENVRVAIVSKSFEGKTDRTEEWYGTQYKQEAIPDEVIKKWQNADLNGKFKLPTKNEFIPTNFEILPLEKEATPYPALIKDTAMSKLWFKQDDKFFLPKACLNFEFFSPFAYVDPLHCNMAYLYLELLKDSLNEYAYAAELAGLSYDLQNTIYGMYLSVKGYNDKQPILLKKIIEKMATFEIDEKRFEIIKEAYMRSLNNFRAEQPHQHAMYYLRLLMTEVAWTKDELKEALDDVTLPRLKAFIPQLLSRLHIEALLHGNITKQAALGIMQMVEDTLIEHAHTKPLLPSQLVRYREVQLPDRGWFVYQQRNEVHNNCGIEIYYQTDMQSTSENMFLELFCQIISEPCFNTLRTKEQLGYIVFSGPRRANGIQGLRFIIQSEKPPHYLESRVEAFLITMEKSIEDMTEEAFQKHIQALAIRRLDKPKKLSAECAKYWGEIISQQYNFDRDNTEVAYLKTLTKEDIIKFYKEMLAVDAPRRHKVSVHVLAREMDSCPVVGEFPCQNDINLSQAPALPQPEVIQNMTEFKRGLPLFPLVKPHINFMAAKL

In the case of `OCCN1CCN(CCCN2c3ccccc3Sc3ccc(C(F)(F)F)cc32)CC1` [FLUPHENAZINE], the IC50 (NADPH oxidase 1) is reported as > 17 µM (not active).
For `O=C(OCn1ncc(Cl)c(Cl)c1=O)c1ccccc1Cl`, the IC50 [1] was 3.15 µM (active), the CC50 [2] was 5.38 µM (active) and the EC50 [3] was 1.99 µM (active). For the same molecule, the IC50 [4] was 0.401 µM (active), the CC50 (HeLa) was > 11 µM (not active) and the AC50 [5] was 3.56 µM (active). For the same molecule, the AC50 [6] was 11.2 µM (active), the IC50 (CHO) was 1.64 µM (active) and the AC50 [7] was 4.39 µM (active). For the same molecule, the AC50 [8] was 27.3 µM (active), the EC50 (Protein RecA) was 0.669 µM (active) and the EC50 [9] was 1.04 µM (active). For the same molecule, the EC50 [10] was 1.07 µM (active), the AC50 [11] was 3.56 µM (active) and the AC50 [12] was 3.32 µM (active). The AC50 (INS1) was 5.37 µM (active), the AC50 [13] was 4.89 µM (active) and the EC50 [14] was > 38 µM (not active). The IC50 (Beta Lactamase) was > 49.8 µM (inactive) and the EC50 [15] was 2.57 µM (inconclusive).
With `Oc1sc(/C=N/c2ccc(F)cc2)c2ccccc12` the IC50 [16] was > 55.7 µM (not active) and the IC50 (Insulin-degrading enzyme) was > 55.9 µM (not active).

Reference: ChEMBL document CHEMBL1201862, “PubChem BioAssay data set” (2004)
